Data from patent US8192962B2, “Processes for detecting toxic substances” (Daikin Industries, Ltd., priority 2001, dated 2012).

Tested on: Mitochondria-located protein genes
Assay: DNA chip mRNA expression in yeast, mitochondria-located protein genes (Table 2)
Assay type: cell-based, Saccharomyces cerevisiae S288C
Details: cells incubated two hours with the chemical substance
Method in brief: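 Chemical exposure: 2 h, log-phase S. cerevisiae S288C, YPD, 25° C., dose set to inhibit growth without death. Profiling: mRNA labeled by reverse transcription with Cy3- or Cy5-dUTP, hybridized to whole-genome array. Output: fluorescence ratio against untreated culture.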

## C=CC=O [(14), acrolein]
Yeast gene YAL039C
  The level of expressed mRNA in the presence of chemical substance/The level of expressed mRNA in the absence of chemical substance: 1.2
Yeast gene YBL022C
  The level of expressed mRNA in the presence of chemical substance/The level of expressed mRNA in the absence of chemical substance: 1.0
Yeast gene YBL030C
  The level of expressed mRNA in the presence of chemical substance/The level of expressed mRNA in the absence of chemical substance: 0.8
Yeast gene YBL038W
  The level of expressed mRNA in the presence of chemical substance/The level of expressed mRNA in the absence of chemical substance: 2.3
Yeast gene YBL099W
  The level of expressed mRNA in the presence of chemical substance/The level of expressed mRNA in the absence of chemical substance: 0.6
Yeast gene YBR003W
  The level of expressed mRNA in the presence of chemical substance/The level of expressed mRNA in the absence of chemical substance: 0.8
Yeast gene YBR044C
  The level of expressed mRNA in the presence of chemical substance/The level of expressed mRNA in the absence of chemical substance: 0.9
Yeast gene YBR091C
  The level of expressed mRNA in the presence of chemical substance/The level of expressed mRNA in the absence of chemical substance: 1.7
Yeast gene YBR122C
  The level of expressed mRNA in the presence of chemical substance/The level of expressed mRNA in the absence of chemical substance: 1.2
Yeast gene YBR185C
  The level of expressed mRNA in the presence of chemical substance/The level of expressed mRNA in the absence of chemical substance: 1.7
Yeast gene YBR221C
  The level of expressed mRNA in the presence of chemical substance/The level of expressed mRNA in the absence of chemical substance: 0.8
Yeast gene YBR251W
  The level of expressed mRNA in the presence of chemical substance/The level of expressed mRNA in the absence of chemical substance: 1.6
Yeast gene YBR282W
  The level of expressed mRNA in the presence of chemical substance/The level of expressed mRNA in the absence of chemical substance: 1.4
Yeast gene YCL057W
  The level of expressed mRNA in the presence of chemical substance/The level of expressed mRNA in the absence of chemical substance: 1.0
Yeast gene YCR046C
  The level of expressed mRNA in the presence of chemical substance/The level of expressed mRNA in the absence of chemical substance: 1.3
Yeast gene YCR083W
  The level of expressed mRNA in the presence of chemical substance/The level of expressed mRNA in the absence of chemical substance: 2.4
Yeast gene YDL067C
  The level of expressed mRNA in the presence of chemical substance/The level of expressed mRNA in the absence of chemical substance: 1.4
Yeast gene YDL181W
  The level of expressed mRNA in the presence of chemical substance/The level of expressed mRNA in the absence of chemical substance: 1.1
Yeast gene YDL198C
  The level of expressed mRNA in the presence of chemical substance/The level of expressed mRNA in the absence of chemical substance: 1.7
Yeast gene YDR079W
  The level of expressed mRNA in the presence of chemical substance/The level of expressed mRNA in the absence of chemical substance: 1.5
Yeast gene YDR178W
  The level of expressed mRNA in the presence of chemical substance/The level of expressed mRNA in the absence of chemical substance: 1.5
Yeast gene YDR231C
  The level of expressed mRNA in the presence of chemical substance/The level of expressed mRNA in the absence of chemical substance: 1.5
Yeast gene YDR258C
  The level of expressed mRNA in the presence of chemical substance/The level of expressed mRNA in the absence of chemical substance: 1.5
Yeast gene YDR298C
  The level of expressed mRNA in the presence of chemical substance/The level of expressed mRNA in the absence of chemical substance: 1.5
Yeast gene YDR347W
  The level of expressed mRNA in the presence of chemical substance/The level of expressed mRNA in the absence of chemical substance: 1.5
Yeast gene YDR377W
  The level of expressed mRNA in the presence of chemical substance/The level of expressed mRNA in the absence of chemical substance: 1.4
Yeast gene YDR529C
  The level of expressed mRNA in the presence of chemical substance/The level of expressed mRNA in the absence of chemical substance: 1.5
Yeast gene YEL024W
  The level of expressed mRNA in the presence of chemical substance/The level of expressed mRNA in the absence of chemical substance: 1.1
Yeast gene YEL039C
  The level of expressed mRNA in the presence of chemical substance/The level of expressed mRNA in the absence of chemical substance: 1.4
Yeast gene YER178W
  The level of expressed mRNA in the presence of chemical substance/The level of expressed mRNA in the absence of chemical substance: 0.9
Yeast gene YFL016C
  The level of expressed mRNA in the presence of chemical substance/The level of expressed mRNA in the absence of chemical substance: 0.8
Yeast gene YGL018C
  The level of expressed mRNA in the presence of chemical substance/The level of expressed mRNA in the absence of chemical substance: 1.2
Yeast gene YGL187C
  The level of expressed mRNA in the presence of chemical substance/The level of expressed mRNA in the absence of chemical substance: 0.9
Yeast gene YGL191W
  The level of expressed mRNA in the presence of chemical substance/The level of expressed mRNA in the absence of chemical substance: 1.6
Yeast gene YGR008C
  The level of expressed mRNA in the presence of chemical substance/The level of expressed mRNA in the absence of chemical substance: 1.3
Yeast gene YGR028W
  The level of expressed mRNA in the presence of chemical substance/The level of expressed mRNA in the absence of chemical substance: 1.2
Yeast gene YGR062C
  The level of expressed mRNA in the presence of chemical substance/The level of expressed mRNA in the absence of chemical substance: 1.2
Yeast gene YGR076C
  The level of expressed mRNA in the presence of chemical substance/The level of expressed mRNA in the absence of chemical substance: 2.3
Yeast gene YGR082W
  The level of expressed mRNA in the presence of chemical substance/The level of expressed mRNA in the absence of chemical substance: 0.9
Yeast gene YGR174C
  The level of expressed mRNA in the presence of chemical substance/The level of expressed mRNA in the absence of chemical substance: 1.6
Yeast gene YGR244C
  The level of expressed mRNA in the presence of chemical substance/The level of expressed mRNA in the absence of chemical substance: 1.2
Yeast gene YHR008C
  The level of expressed mRNA in the presence of chemical substance/The level of expressed mRNA in the absence of chemical substance: 1.6
Yeast gene YIL155C
  The level of expressed mRNA in the presence of chemical substance/The level of expressed mRNA in the absence of chemical substance: 1.3
Yeast gene YJL096W
  The level of expressed mRNA in the presence of chemical substance/The level of expressed mRNA in the absence of chemical substance: 2.1
Yeast gene YJL102W
  The level of expressed mRNA in the presence of chemical substance/The level of expressed mRNA in the absence of chemical substance: 1.5
Yeast gene YJL133W
  The level of expressed mRNA in the presence of chemical substance/The level of expressed mRNA in the absence of chemical substance: 0.7
Yeast gene YJL166W
  The level of expressed mRNA in the presence of chemical substance/The level of expressed mRNA in the absence of chemical substance: 1.9
Yeast gene YJL180C
  The level of expressed mRNA in the presence of chemical substance/The level of expressed mRNA in the absence of chemical substance: 1.4
Yeast gene YJR045C
  The level of expressed mRNA in the presence of chemical substance/The level of expressed mRNA in the absence of chemical substance: 0.5
Yeast gene YJR077C
  The level of expressed mRNA in the presence of chemical substance/The level of expressed mRNA in the absence of chemical substance: 0.7
